Data on 29 compounds can be found in patent US20020002170A1, “Piperidine and piperazine derivatives as inhibitors of the abeta fibril formation” (priority 1999, published 2002).

Counter-ions that a name gives are not always drawn. Some results are limits rather than exact numbers.

Take `COc1ccc(C2(c3ccc(OC)cc3)CCN(CC[C@@H]3C=C4c5cccc6[nH]cc(c56)C[C@H]4N(C)C3)CC2)cc1`: the melting point was 184 to 187 °C (dec.). Take `CN1C[C@H](CCN2CCC(O)(c3ccc(Cl)cc3)CC2)C=C2c3cccc4[nH]cc(c34)C[C@H]21`: the melting point was in the range of 154 to 157 °C.

The compound `CN1C[C@H](CCN2CCN(C(c3ccccc3)c3ccccc3)CC2)C=C2c3cccc4[nH]cc(c34)C[C@H]21` came in with a melting point of 165 to 169 °C. The figure for `CN1C[C@H](CN2CCN(C(c3ccccc3)c3ccccc3)CC2)C=C2c3cccc4[nH]cc(c34)C[C@H]21` is > 200 °C (dec.). As to `CN1C[C@H](CN2CCC(O)(c3ccc(Cl)cc3)CC2)C=C2c3cccc4c3c(cn4C)C[C@H]21`, the melting point lay in the range of 101 to 107 °C. The figure for `CN1C[C@H](CN2CCN(C(c3ccccc3)c3ccccc3)CC2)C=C2c3cccc4c3c(cn4C)C[C@H]21` is 172 to 175 °C; for `COc1ccc(C2(c3ccc(OC)cc3)CCN(C[C@@H]3C=C4c5cccc6[nH]c(Cl)c(c56)C[C@H]4N(C)C3)CC2)cc1` it is > 204 °C (dec.); for `CN1C[C@H](CN2CCC(O)(c3ccc(Cl)cc3)CC2)C=C2c3cccc4[nH]c(Cl)c(c34)C[C@H]21` it is > 192 °C (dec.). The figure for `CN1C[C@H](CN2CCN(C(c3ccccc3)c3ccccc3)CC2)C=C2c3cccc4[nH]c(Cl)c(c34)C[C@H]21` is 208 °C (dec.); for `CN1C[C@H](CN2CCN(C(c3ccccc3)c3ccccc3)CC2)C[C@@H]2c3cccc4[nH]cc(c34)C[C@H]21` it is 230 to 233 °C; for `CN1C[C@H](CN2CCN(C(c3ccccc3)c3ccccc3)CC2)C[C@@H]2c3cccc4[nH]c(Cl)c(c34)C[C@H]21` it is 250 °C (dec.). On to `CN1C[C@H](CN2CCN(C(c3ccccc3)c3ccccc3)CC2)C[C@@H]2c3cccc4[nH]c(Br)c(c34)C[C@H]21`, for which the melting point is 255 °C (dec.). The figure for `CCN1C[C@H](CN2CCN(C(c3ccccc3)c3ccccc3)CC2)C[C@@H]2c3cccc4[nH]cc(c34)C[C@H]21` is 203 to 205 °C; for `CN1C[C@H](CCN2CCN(C(c3ccccc3)c3ccccc3)CC2)C[C@@H]2c3cccc4[nH]cc(c34)C[C@H]21` it is 206 to 212 °C; for `COc1ccc(C2(c3ccc(OC)cc3)CCN(C[C@H]3CN(C)[C@@H]4Cc5c[nH]c6cccc(c56)[C@@]4(OC)C3)CC2)cc1` it is 215 to 222 °C.

In turn, `CO[C@]12C[C@@H](CN3CCC(O)(c4ccc(Cl)cc4)CC3)CN(C)[C@@H]1Cc1c[nH]c3cccc2c13` yielded a melting point of 144 to 148 °C.

`CO[C@]12C[C@@H](CN3CCC(O)(c4cccc(C(F)(F)F)c4)CC3)CN(C)[C@@H]1Cc1c[nH]c3cccc2c13` yielded a melting point of 135 to 140 °C. The figure for `CO[C@]12C[C@@H](CN3CCC(O)(c4ccc(Cl)c(C(F)(F)F)c4)CC3)CN(C)[C@@H]1Cc1c[nH]c3cccc2c13` is 143 to 146 °C.

Compound `COc1ccc(C2(c3ccc(OC)cc3)CCN(CC[C@H]3CN(C)[C@@H]4Cc5c[nH]c6cccc(c56)[C@@]4(OC)C3)CC2)cc1` showed a melting point of 129 to 136 °C. The figure for `CO[C@]12C[C@@H](CCN3CCC(O)(c4ccc(Cl)cc4)CC3)CN(C)[C@@H]1Cc1c[nH]c3cccc2c13` is 133 to 139 °C; for `CO[C@]12C[C@@H](CCN3CCN(C(c4ccccc4)c4ccccc4)CC3)CN(C)[C@@H]1Cc1c[nH]c3cccc2c13` it is 130 °C; for `COc1cccc2c1C[C@H]1C[C@@H](CN3CCC(O)(c4ccc(Cl)cc4)CC3)CN(C)[C@@H]1C2` it is 202 to 204 °C.

In the case of `COc1ccc(C2(c3ccc(OC)cc3)CCN(C[C@@H]3C[C@@H]4Cc5c(cccc5OC)C[C@H]4N(C)C3)CC2)cc1` (as salt: fumarate), the melting point was 216 to 219 °C.

`COc1ccc(C2(c3ccc(OC)cc3)CCN(CC[C@@H]3C[C@@H]4Cc5c(cccc5OC)C[C@H]4N(C)C3)CC2)cc1` (as salt: succinate) yielded a melting point of 138 to 142 °C. The figure for `COc1cccc2c1C[C@H]1C[C@@H](CCN3CCC(O)(c4ccc(Cl)cc4)CC3)CN(C)[C@@H]1C2` (as salt: succinate) is 212 to 215 °C; for `COc1ccc(C2(c3ccc(OC)cc3)CCN(C[C@H]3CN(C)[C@@H]4Cc5c(Br)[nH]c6cccc(c56)[C@@]4(OC)C3)CC2)cc1` (as salt: tartrate) it is 167 to 172 °C. The figure for `COc1cccc2c1C[C@H]1C[C@@H](CCN3CCN(C(c4ccccc4)c4ccccc4)CC3)CN(C)[C@@H]1C2` [Example 5, [3S,4aR,10aR]-3-[2-(4-Benzhydryl-piperazin-1-yl)-ethyl]-6-methoxy-1-methyl-1,2,3,4,4a,5,10,10a-octahydro-benzo[g]quinoline] is 140 to 148 °C; for `COc1cccc2c1C[C@H]1C[C@@H](CN3CCN(C(c4ccccc4)c4ccccc4)CC3)CN(C)[C@@H]1C2` [Example 10, [3S,4aR,10aR]-3-(4-Benzhydryl-piperazin-1-ylmethyl)-6-methoxy-1-methyl-1,2,3,4,4a,5,10,10a-octahydro-benzo[g]quinoline] it is 278 to 280 °C; for `COc1cccc2c1C[C@H]1C[C@@H](CN3CCC(NC(=O)C(c4ccccc4)c4ccccc4)CC3)CN(C)[C@@H]1C2` [Example 12, N-[1-((3S,4aR,10aR)-6-Methoxy-1-methyl-1,2,3,4,4a,5,10,10a-octahydro-benzo[g]quinolin-3-ylmethyl)-piperidin-4-yl]-2,2-diphenyl-acetamide] it is 219 to 222 °C.
